Read-outs that look alike come from different tables or passages of the source.
Experiments:
[1] = tested on: EOL-1 (eosinophilic leukaemia, carrying the fusion FIP1L1-PDGFRA); test: Calcein AM cytotoxicity assay; format: cell-based; conditions: Homo sapiens
From the text: (§1) Cytotoxicity of the compounds is the major property determining their anticancer effect in vivo. One of the parameters used, as the basis for cytotoxicity assays, is the integrity of cytoplasmic membrane of viable cells. For example, a microtiter assay, which uses acetomethoxy derivate of calcein (Calcein AM), is widely used for evaluation of cell proliferation and cytotoxicity. This assay is used in drug screening programs and in chemosensitivity testing. Intracellular esterases of viable cells convert calcein AM to green-fluorescent calcein of which signal corresponds to the number of viable cells in the culture.
(§2) We have been using the following cell lines: MV4-11 (acute myeloid leukemia, FLT3-ITD positive), MOLM-13 (acute myeloid leukemia, FLT3-ITD positive), THP-1 (acute myeloid leukemia, wt FLT3), U937 (monocytic leukemia, wt FLT3), EOL-1 (eosinophilic leukaemia, carrying the fusion FIP1L1-PDGFRA), H1703 (non-small cell lung carcinoma, PDGFRA amplification). […] K562 and MCF-7 cell lines were maintained in DMEM supplemented with 10% fetal bovine serum, penicilin (100 U/ml) and streptomycin (100 μg/ml). All cell lines were cultivated at 37° C. in 5% CO2. For cytotoxicity assays, cells were seeded in appropriate densities into 96 well plates and the next day tested compounds were added at various concentrations in triplicates. Three days after drug addition, Calcein AM solution (final concentration 1 μg/ml; Thermo Scientific, USA) was added into each well and incubated for 1 h.

K562 = test: Calcein AM cytotoxicity assay; format: cell-based; conditions: Homo sapiens
From the text: as §1, §2

MCF-7 = test: Calcein AM cytotoxicity assay; format: cell-based; conditions: Homo sapiens
From the text: as §1, §2

[2] = tested on: MOLM-13 (acute myeloid leukemia, FLT3-ITD positive); test: Calcein AM cytotoxicity assay; format: cell-based; conditions: Homo sapiens
From the text: as §1, §2

[3] = tested on: MV4-11 (acute myeloid leukemia, FLT3-ITD positive); test: Calcein AM cytotoxicity assay; format: cell-based; conditions: Homo sapiens
From the text: as §1, §2

[4] = tested on: THP-1 (acute myeloid leukemia, wt FLT3); test: Calcein AM cytotoxicity assay; format: cell-based; conditions: Homo sapiens
From the text: as §1, §2

[5] = tested on: U937 (monocytic leukemia, wt FLT3); test: Calcein AM cytotoxicity assay; format: cell-based; conditions: Homo sapiens
From the text: as §1, §2

[6] = tested on: Kasumi-1 (acute myeloid leukemia, KIT mutation Asn822Lys); test: Calcein AM cytotoxicity assay; format: cell-based; conditions: Homo sapiens
From the text: as §1
We have been using the following cell lines: MV4-11 (acute myeloid leukemia, FLT3-ITD positive), MOLM-13 (acute myeloid leukemia, FLT3-ITD positive), THP-1 (acute myeloid leukemia, wt FLT3), U937 (monocytic leukemia, wt FLT3), EOL-1 (eosinophilic leukaemia, carrying the fusion FIP1L1-PDGFRA), H1703 (non-small cell lung carcinoma, PDGFRA amplification). They were maintained in RPMI-1640 supplemented with 10% fetal bovine serum, penicillin (100 U/ml) and streptomycin (100 μg/ml). Kasumi-1 (acute myeloid leukemia, KIT mutation Asn822Lys) cells were cultivated in RPMI-1640 supplemented with 15% fetal bovine serum, penicillin (100 U/ml) and streptomycin (100 μg/ml). K562 and MCF-7 cell lines were maintained in DMEM supplemented with 10% fetal bovine serum, penicilin (100 U/ml) and streptomycin (100 μg/ml). All cell lines were cultivated at 37° C. in 5% CO2. For cytotoxicity assays, cells were seeded in appropriate densities into 96 well plates and the next day tested compounds were added at various concentrations in triplicates. Three days after drug addition, Calcein AM solution (final concentration 1 μg/ml; Thermo Scientific, USA) was added into each well and incubated for 1 h. After this incubation period, fluorescence of the live cells was measured at 485 nm/538 nm (ex/em) with a Fluoroskan Ascent microplate reader (Labsystems).

CDK1/Cyclin B = molecular target: T1, CDK1/Cyclin B (Homo sapiens, UniProt P06493); test: Kinase inhibition assay with [γ-33P]ATP; format: biochemical; conditions: histone H1, 15 μM ATP
T1 construct: made in house; host or cells: Sf9 insect cells, baculoviral infection
Description: (§3) CDK1/Cyclin B and CDK2/Cyclin E kinases were produced in Sf9 insect cells via baculoviral infection and purified on a NiNTA column (Qiagen). CDK5/p35 and CDK7Cyclin H/MAT1, FLT3 WT, FLT3-ITD and FLT3 D835 were purchased from ProQinase GmbH. The kinase reactions were assayed with 1 mg/mL histone H1 (for CDK1, CDK2 and CDK5), (YSPTSPS)2KK peptide (for CDK7) or AGLT substrate (for FLT3) in the presence of 15/15/0.15/1.5/1 μM ATP (for CDK1/CDK2/CDK5/CDK7/FLT3), 0.05 μCi [γ-^33P]ATP and of the test compound in a final volume of 10 μL, all in a reaction buffer (60 mM HEPES-NaOH, pH 7.5, 3 mM MgCl2, 3 mM MnCl2, 3 μM Na-orthovanadate, 1.2 mM DTT, 2.5 μg/50 μl PEG20,000). The reactions were stopped by adding 5 μL of 3% aq H3PO4. Aliquots were spotted onto P-81 phosphocellulose (Whatman), washed 3× with 0.5% aq H3PO4 and finally air-dried.

CDK2/Cyclin E = molecular target: T2, CDK2/Cyclin E (Homo sapiens, UniProt P24941); test: Kinase inhibition assay with [γ-33P]ATP; format: biochemical
T2 construct: made in house; host or cells: Sf9 insect cells, baculoviral infection
Description: as §3

CDK5/p35 = molecular target: T3, CDK5/p35 (Homo sapiens, UniProt Q00535); test: Kinase inhibition assay with [γ-33P]ATP; format: biochemical; conditions: histone H1, 0.15 μM ATP
T3 construct: purchased ProQinase GmbH
Description: as §3

FLT3 WT = molecular target: T4, FLT3 WT (Homo sapiens, UniProt P36888); test: Kinase inhibition assay with [γ-33P]ATP; format: biochemical; conditions: AGLT substrate, 1 μM ATP
T4 construct: purchased ProQinase GmbH
T4 sequence (P36888 27-993): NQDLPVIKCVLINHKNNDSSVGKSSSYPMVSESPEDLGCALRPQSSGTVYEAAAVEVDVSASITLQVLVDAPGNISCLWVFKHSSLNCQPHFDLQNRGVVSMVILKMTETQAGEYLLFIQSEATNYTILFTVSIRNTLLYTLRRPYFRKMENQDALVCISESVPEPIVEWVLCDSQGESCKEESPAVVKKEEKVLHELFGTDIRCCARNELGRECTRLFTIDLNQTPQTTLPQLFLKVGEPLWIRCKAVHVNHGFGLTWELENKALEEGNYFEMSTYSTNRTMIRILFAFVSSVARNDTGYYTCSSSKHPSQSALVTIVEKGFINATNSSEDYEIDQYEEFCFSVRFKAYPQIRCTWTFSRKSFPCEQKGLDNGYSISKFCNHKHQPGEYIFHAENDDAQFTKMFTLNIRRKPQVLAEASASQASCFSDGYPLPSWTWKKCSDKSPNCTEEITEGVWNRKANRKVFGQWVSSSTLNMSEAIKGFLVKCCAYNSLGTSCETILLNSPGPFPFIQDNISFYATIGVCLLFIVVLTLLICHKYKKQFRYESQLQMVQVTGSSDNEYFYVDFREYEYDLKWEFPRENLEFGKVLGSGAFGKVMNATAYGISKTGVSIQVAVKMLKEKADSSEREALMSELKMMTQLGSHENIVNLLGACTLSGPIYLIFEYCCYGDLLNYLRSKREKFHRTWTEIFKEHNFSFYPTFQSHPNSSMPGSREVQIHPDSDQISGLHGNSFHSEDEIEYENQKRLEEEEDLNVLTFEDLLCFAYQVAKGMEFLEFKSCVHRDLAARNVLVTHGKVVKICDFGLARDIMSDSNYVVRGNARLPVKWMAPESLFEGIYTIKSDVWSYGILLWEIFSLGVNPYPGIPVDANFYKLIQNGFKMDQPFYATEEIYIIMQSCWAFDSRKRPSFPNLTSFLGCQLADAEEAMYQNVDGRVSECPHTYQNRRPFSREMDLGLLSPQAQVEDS
Description: as §3

FLT3-ITD = molecular target: T5, FLT3-ITD (Homo sapiens, UniProt P36888); test: Kinase inhibition assay with [γ-33P]ATP; format: biochemical; conditions: comparative example; read-out: Influence of compounds on protein kinase inhibition, IC50 values (μM) FLT3 ITD
T5 sequence (P36888 1-993): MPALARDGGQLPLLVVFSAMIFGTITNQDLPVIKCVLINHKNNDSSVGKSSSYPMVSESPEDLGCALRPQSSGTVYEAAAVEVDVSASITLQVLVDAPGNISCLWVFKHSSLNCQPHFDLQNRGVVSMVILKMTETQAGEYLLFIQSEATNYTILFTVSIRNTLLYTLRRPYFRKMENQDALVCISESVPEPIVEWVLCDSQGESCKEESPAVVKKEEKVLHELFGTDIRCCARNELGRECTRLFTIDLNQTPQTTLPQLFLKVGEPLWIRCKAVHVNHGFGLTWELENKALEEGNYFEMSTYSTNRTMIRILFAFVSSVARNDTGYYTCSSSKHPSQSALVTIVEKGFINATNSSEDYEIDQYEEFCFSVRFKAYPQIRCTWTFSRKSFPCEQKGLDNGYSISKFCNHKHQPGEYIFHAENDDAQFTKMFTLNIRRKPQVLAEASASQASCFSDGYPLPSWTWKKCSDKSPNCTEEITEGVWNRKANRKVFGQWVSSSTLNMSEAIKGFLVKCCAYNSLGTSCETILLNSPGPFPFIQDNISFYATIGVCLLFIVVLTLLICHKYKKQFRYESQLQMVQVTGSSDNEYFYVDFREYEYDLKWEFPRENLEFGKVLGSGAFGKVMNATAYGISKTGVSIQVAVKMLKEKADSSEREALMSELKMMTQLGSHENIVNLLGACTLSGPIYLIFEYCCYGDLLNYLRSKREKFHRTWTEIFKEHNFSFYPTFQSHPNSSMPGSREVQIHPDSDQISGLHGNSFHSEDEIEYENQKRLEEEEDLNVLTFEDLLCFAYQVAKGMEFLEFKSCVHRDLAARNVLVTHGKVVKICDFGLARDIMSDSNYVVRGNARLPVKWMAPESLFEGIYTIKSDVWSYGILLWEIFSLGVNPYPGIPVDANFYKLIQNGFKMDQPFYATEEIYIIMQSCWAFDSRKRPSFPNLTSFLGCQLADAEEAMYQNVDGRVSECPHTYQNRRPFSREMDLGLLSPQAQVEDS
Description: as §3

[7] = EOL1, 72 h, EOL-1, Calcein AM, three days, read-out: EC50 values (μM) EOL-1
[8] = 72 h, K562, Calcein AM, three days, read-out: EC50 values (μM) K562
[9] = MCF7, 72 h, MCF-7, Calcein AM, three days, read-out: EC50 values (μM) MCF-7
[10] = 72 h, MOLM-13, Calcein AM, three days, read-out: EC50 values (μM) MOLM-13
[11] = 72 h, MV4-11, Calcein AM, three days after drug addition, read-out: EC50 values (μM) MV4-11
[12] = 72 h, THP-1, Calcein AM, three days, read-out: EC50 values (μM) THP-1
[13] = U-937, 72 h, U937, Calcein AM, three days, read-out: EC50 values (μM) U937
[14] = 72 h, Kasumi-1, Calcein AM, three days, read-out: EC50 values (μM) Kasumi-1
[15] = histone H1, 15 μM ATP, read-out: IC50 values (μM) CDK2
[16] = comparative example, K562, 72 h, read-out: Influence of compounds on proliferation (72 h), EC50 values (μM) K562
[17] = comparative example, MOLM-13, 72 h, read-out: Influence of compounds on proliferation (72 h), EC50 values (μM) MOLM-13
[18] = comparative example, MV4-11, 72 h, read-out: Influence of compounds on proliferation (72 h), EC50 values (μM) MV4-11
[19] = comparative example, read-out: Influence of compounds on protein kinase inhibition, IC50 values (μM) CDK2

T1 sequence (P06493 whole entry, species assumed): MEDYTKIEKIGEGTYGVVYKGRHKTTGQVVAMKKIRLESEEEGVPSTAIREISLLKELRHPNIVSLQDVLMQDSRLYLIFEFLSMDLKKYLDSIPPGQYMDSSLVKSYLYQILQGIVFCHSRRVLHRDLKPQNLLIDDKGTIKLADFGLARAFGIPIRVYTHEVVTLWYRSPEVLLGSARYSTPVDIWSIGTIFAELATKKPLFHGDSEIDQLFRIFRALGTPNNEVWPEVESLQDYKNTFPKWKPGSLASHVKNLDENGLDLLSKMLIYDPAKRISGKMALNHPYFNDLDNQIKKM
T1 sequence (P14635 whole entry partner, species assumed): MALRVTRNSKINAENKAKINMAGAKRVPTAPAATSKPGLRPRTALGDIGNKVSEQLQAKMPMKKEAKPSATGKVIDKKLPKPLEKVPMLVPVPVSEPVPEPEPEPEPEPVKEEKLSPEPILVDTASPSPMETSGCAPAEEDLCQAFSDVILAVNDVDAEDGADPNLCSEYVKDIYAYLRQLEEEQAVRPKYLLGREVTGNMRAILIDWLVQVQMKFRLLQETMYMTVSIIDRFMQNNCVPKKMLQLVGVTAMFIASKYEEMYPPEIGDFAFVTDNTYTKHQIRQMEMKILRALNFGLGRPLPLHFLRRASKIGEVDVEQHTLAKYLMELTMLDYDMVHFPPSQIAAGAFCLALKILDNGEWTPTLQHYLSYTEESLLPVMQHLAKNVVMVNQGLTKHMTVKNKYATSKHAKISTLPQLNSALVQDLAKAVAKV
T3 sequence (Q00535 whole entry): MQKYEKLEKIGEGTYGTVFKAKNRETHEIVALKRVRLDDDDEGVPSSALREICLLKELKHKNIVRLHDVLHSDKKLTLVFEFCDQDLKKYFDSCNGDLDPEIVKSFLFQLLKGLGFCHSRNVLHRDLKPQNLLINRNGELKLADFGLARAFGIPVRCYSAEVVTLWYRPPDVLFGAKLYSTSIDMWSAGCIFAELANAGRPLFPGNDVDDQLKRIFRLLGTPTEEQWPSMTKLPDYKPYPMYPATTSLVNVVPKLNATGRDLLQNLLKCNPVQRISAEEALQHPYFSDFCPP
T3 sequence (Q15078 whole entry partner): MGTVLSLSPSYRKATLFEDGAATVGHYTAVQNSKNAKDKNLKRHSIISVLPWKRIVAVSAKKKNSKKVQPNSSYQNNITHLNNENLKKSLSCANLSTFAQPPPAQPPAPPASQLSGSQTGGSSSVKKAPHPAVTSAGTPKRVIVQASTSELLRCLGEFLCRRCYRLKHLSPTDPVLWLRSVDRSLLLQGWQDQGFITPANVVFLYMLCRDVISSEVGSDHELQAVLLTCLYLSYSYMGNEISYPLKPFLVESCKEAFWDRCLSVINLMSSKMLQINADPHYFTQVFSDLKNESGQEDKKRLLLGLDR

| SMILES | EC50 [1, 7] [µM] | EC50 (K562; [8]) [µM] | EC50 (MCF-7; [9]) [µM] | EC50 [2, 10] [µM] | EC50 [3, 11] [µM] | EC50 [4, 12] [µM] | EC50 [5, 13] [µM] | EC50 [6, 14] [µM] | IC50 (CDK1/Cyclin B) [µM] | IC50 (CDK2/Cyclin E; [15]) [µM] | IC50 (CDK5/p35) [µM] | IC50 (FLT3 WT) [µM] | EC50 (K562; [16]) [µM] | EC50 [2, 17] [µM] | EC50 [3, 18] [µM] | IC50 (CDK2/Cyclin E; [19]) [µM] | IC50 (FLT3-ITD) [µM] | other results |
| --- | --- | --- | --- | --- | --- | --- | --- | --- | --- | --- | --- | --- | --- | --- | --- | --- | --- | --- |
| NCCCCCCNc1nc(Nc2ccc(CN3CCOCC3)cc2)c2ncn(C3CCCC3)c2n1 [Compound 38] | 0.276 | 4.57 | 5.55 | 0.064 | 0.086 | 3.59 | 2.92 | 1.23 | 6.16 | 3.56 | 8.16 | 0.021 |  |  |  |  |  |  |
| NCCCCCNc1nc(Nc2ccc(CN3CCOCC3)cc2)c2ncn(C3CCCC3)c2n1 [Compound 267] | 0.071 | 1.79 | 2.27 | 0.02 | 0.032 | 2.42 | 3.63 | 1.25 | 6.05 | 2.04 | 3.71 | 0.025 |  |  |  |  |  |  |
| NC1CCC(Nc2nc(Nc3ccc(CN4CCOCC4)cc3)c3ncn(-c4ccccc4)c3n2)CC1 (stereo not drawn) [Phenyl derivative of compound 264, reference compound] |  |  |  |  |  |  |  |  |  |  |  |  | 1.81 | 0.912 | 0.648 | > 5 | 0.759 | EC50 ([6]; comparative example, Kasumi-1, 72 h, read-out: Influence of compounds on proliferation (72 h), EC50 values (μM) Kasumi-1): 0.722 µM |
| NC1CCC(Nc2nc(Nc3ccc(CN4CCOCC4)cc3)c3ncn(Cc4ccccc4)c3n2)CC1 (stereo not drawn) [Benzyl derivative of compound 264, reference compound] |  |  |  |  |  |  |  |  |  |  |  |  | 2.69 | 1.26 | 0.393 | 7.51 | 1.03 | EC50 ([1]; EOL1, comparative example, EOL-1, 72 h, read-out: Influence of compounds on proliferation (72 h), EC50 values (μM) EOL-1): 0.491 µM; EC50 (MCF-7; MCF7, comparative example, MCF-7, 72 h, read-out: Influence of compounds on proliferation (72 h), EC50 values (μM) MCF-7): 4.83 µM; EC50 ([4]; comparative example, THP-1, 72 h, read-out: Influence of compounds on proliferation (72 h), EC50 values (μM) THP-1): 14.8 µM; EC50 ([5]; U-937, comparative example, U937, 72 h, read-out: Influence of compounds on proliferation (72 h), EC50 values (μM) U937): 2.62 µM |
